The results in this text go back to patent US5482941A, “Quinazolinone antianginal agents” (Pfizer Inc., priority 1991, dated 1996).

One series has as its system rabbit. In words: Safety profile, acute toxicity in rabbit. It counts as in vivo.
Series [1] deals with calcium/calmodulin (Ca/CAM)-independent cGMP PDE. In words: In vitro inhibition of Ca/CAM-independent cGMP PDE. Particulars: between Ca/CAM-independent cGMP PDE and cGMP-inhibited cAMP PDE (IC50 cAMP / IC50 cGMP). The class given is biochemical, rabbit. As for the experimental part:
(§1) Phosphodiesterase activity
(§2) Compound affinities for cGMP and cAMP PDEs are assessed by determination of their IC50 values (the concentration of inhibitor required for 50% inhibition of enzyme activity). The PDE enzymes are isolated from rabbit platelets and rat kidney, essentially by the method of W. J. Thompson et al. (Biochem., 1971, 10, 311). The calcium/calmodulin (Ca/CAM)-independentcGMP PDE and the cGMP-inhibited cAMP PDE enzymes are obtained from rabbit platelets whilst, of the four major PDE enzymes of the rat kidney, the Ca/CAM-dependent cGMP PDE (fraction I) is isolated. Assays are performed using a modification of the "batch" method of W. J. Thompson and M. M. Appleman (Biochem., 1979, 18, 5228).

Series [2] addresses T1, calcium/calmodulin (Ca/CAM)-independent cGMP PDE (Oryctolagus cuniculus, UniProt G1SX67).
T1 construct: The PDE enzymes are isolated from rabbit platelets and rat kidney; from tissue; host or cells: rabbit platelets
Briefly: In vitro inhibition of Ca/CAM-independent cGMP PDE. The class given is biochemical, rabbit. Particulars: Ca/CAM-independent cGMP PDE from rabbit platelets, in vitro. As for the experimental part:
as §1, §2

In another series the target is T2, cGMP-inhibited cAMP PDE (Oryctolagus cuniculus, UniProt G1ST54).
T2 construct: The PDE enzymes are isolated from rabbit platelets and rat kidney; from tissue; host or cells: rabbit platelets
T2 sequence (G1ST54 1-1128): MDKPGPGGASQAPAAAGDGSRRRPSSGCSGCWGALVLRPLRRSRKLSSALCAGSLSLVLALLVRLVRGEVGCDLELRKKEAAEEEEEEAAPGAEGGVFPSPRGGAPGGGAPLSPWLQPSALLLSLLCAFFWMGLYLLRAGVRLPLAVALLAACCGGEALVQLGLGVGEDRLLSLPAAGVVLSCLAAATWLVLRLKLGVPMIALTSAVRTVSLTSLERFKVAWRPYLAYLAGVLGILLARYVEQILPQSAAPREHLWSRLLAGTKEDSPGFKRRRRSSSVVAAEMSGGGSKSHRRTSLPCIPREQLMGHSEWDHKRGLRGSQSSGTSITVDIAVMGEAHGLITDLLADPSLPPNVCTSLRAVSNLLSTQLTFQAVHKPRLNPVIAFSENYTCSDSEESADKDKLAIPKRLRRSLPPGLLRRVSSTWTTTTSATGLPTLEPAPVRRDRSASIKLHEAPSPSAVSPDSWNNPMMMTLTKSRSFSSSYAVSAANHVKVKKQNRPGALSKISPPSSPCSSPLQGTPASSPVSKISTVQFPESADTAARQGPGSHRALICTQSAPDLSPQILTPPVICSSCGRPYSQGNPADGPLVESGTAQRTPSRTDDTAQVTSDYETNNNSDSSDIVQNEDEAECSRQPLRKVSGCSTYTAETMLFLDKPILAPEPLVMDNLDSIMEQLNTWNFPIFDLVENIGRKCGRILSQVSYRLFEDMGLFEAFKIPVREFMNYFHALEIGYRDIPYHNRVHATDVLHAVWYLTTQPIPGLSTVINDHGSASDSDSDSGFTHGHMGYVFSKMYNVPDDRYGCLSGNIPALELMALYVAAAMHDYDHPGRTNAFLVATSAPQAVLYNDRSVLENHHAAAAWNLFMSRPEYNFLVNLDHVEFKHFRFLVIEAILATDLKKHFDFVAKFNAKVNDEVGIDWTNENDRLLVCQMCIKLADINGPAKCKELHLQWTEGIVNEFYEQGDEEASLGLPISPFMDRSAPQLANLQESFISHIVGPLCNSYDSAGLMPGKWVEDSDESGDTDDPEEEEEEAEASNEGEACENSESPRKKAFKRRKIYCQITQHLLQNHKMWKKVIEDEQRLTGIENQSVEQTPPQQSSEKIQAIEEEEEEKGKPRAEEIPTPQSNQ
Briefly: In vitro inhibition of cGMP-inhibited cAMP PDE. The class given is biochemical. Particulars: cGMP-inhibited cAMP PDE from rabbit platelets. As for the experimental part:
as §1, §2

Consider `CCOc1ccc(S(=O)(=O)N2CCN(CCO)CC2)cc1-c1nc2cccc(C)c2c(=O)[nH]1` [Example 4, 2-{2-Ethoxy-5-[4-(2-hydroxyethyl)-1-piperazinylsulphonyl]phenyl}-5-methylquinazolin-4(3H)-one], for which the “signs of adverse acute toxicity” value with rabbit (doses of up to 10 mg/kg i.d.) is listed as “no signs of adverse acute toxicity being observed”.

Broadly, the IC50 is the point on the concentration scale where inhibition reaches its midpoint. For `CCOc1ccc(S(=O)(=O)N2CCN(CCO)CC2)cc1-c1nc2c(C)cccc2c(=O)[nH]1` [Example 5, 2-{2-Ethoxy-5-[4-(2-hydroxyethyl)-1-piperazinylsulphonyl]phenyl}-8-methylquinazolin-4(3H)-one], in series [1], the “SELECTIVITY RATIO” value is listed as > 2,702. The IC50 in series [2] was 37 nM; at cGMP-inhibited cAMP PDE, above 100 µM. In addition, the “signs of adverse acute toxicity” value with rabbit (doses of up to 10 mg/kg i.d.) is recorded as “no signs of adverse acute toxicity being observed”.

Regarding `CCCOc1ccc(S(=O)(=O)N2CCN(CCO)CC2)cc1-c1nc2c(C)cccc2c(=O)[nH]1` [Example 6], the “SELECTIVITY RATIO” value in series [1] is recorded as > 15,384. In addition, the figures for the IC50 (in series [2]; against cGMP-inhibited cAMP PDE) were 6.5 nM and above 100 µM, respectively.

In the case of `CCCOc1ccc(C=CC(=O)N2CCN(C)CC2)cc1-c1nc2c(C)cccc2c(=O)[nH]1` [Example 9], in series [1], the “SELECTIVITY RATIO” value is > 2,702. Besides, the IC50 in series [2] was 37 nM; against cGMP-inhibited cAMP PDE it was above 100 µM. Further, the “signs of adverse acute toxicity” value with rabbit (doses of up to 1 mg/kg i.d.) was “no signs of adverse acute toxicity being observed”.

For `CCCOc1ccc(C=CC(=O)OC(C)(C)C)cc1-c1nc2c(C)cccc2c(=O)[nH]1` [Example 10, t-Butyl 3-(8-methylquinazolin-4(3H)-on-2-yl)-4-n-propoxycinnamate], the “SELECTIVITY RATIO” value in series [1] is > 1,851. Moreover, the IC50 in series [2] was 54 nM; against cGMP-inhibited cAMP PDE, above 100 µM.

Turning to `CCOc1ccc(C(O)CN2CCOCC2)cc1-c1nc2c(C)cccc2c(=O)[nH]1` (centres unmarked) [Example 17, 2-[2-Ethoxy-5-(1-hydroxy-2-morpholinoethyl)phenyl]-8-methylquinazolin-4(3H)-one], the “SELECTIVITY RATIO” value in series [1] is listed as > 1,886. The figures for the IC50 (in series [2]; against cGMP-inhibited cAMP PDE) were 53 nM and above 100 µM, respectively.

As for `CCOc1ccc(S(=O)(=O)N2CCN(CCO)CC2)cc1-c1nc2c(C(N)=O)cccc2c(=O)[nH]1` [Example 19, 8-Carbamoy-2-{2-ethoxy-5-[4-(2-hydroxyethyl)-1-piperazinylsulphonyl]phenyl}quinazolin-4(3H)-one], the “SELECTIVITY RATIO” value in series [1] was 1,970. Besides, the results for the IC50 (in series [2]; against cGMP-inhibited cAMP PDE) were 34 nM and 67 µM, respectively.

With `CCCOc1ccccc1-c1nc2c(C(=O)NCC)cccc2c(=O)[nH]1` [Example 21, 8-Ethylcarbamoyl-2-(2-n-propoxyphenyl)quinazolin-4(3H)-one], in series [1], the “SELECTIVITY RATIO” value is > 7,142. Also, the IC50 in series [2] is 14 nM; against cGMP-inhibited cAMP PDE, above 100 µM.

Take `CCCOc1ccc(C(C)=O)cc1-c1nc2c(C)cccc2c(=O)[nH]1` [Example 22, 2-(5-Acetyl-2-n-propoxyphenyl)-8-methylquinazolin-4(3H)-one]: the IC50 in series [2] was 49 nM; at cGMP-inhibited cAMP PDE, above 100 µM.
